Results published in patent publication US11826344B2, “Composition, method of manufacture, and use of site-specific delivery of bruceolides for treatment of cancer and other diseases” (HOWARD UNIVERSITY, priority 2015, dated 2023).

Columns and labels:
Assay type in all cases: cell-based, human
LNCaP cells [1] = test: Cell cycle analysis by propidium iodide flow cytometry; conditions: 50 nM brusatol, 120 h (day 5)
Protocol: LNCaP cells (seeding density of 40,000 cells per well) were seeded in triplicates in a 24-well plate and incubated for 48 hours. […] The experiment was done in triplicate. At the 120 h time point, cells were harvested and washed twice with cold PBS, fixed in 70% ethanol for 1 h at 4° C. The cells were then washed twice with PBS, and treated with ribonuclease followed by staining with propidium iodide. The stained cells were subjected to cell cycle analysis using the BD Accuri™ C6 flow cytometer (BD Biosciences, Ann Arbor, MI, USA). For each replicate, 20,000 events were recorded.

LNCaP cells [2] = test: Cell Titer 96 Non-Radioactive Cell Proliferation Assay, LNCaP cells, 120 h; conditions: 10-500 nM
Protocol: (§1) The human prostate cancer cell lines, PC3 and LNCaP, were obtained from American Type Culture Collection (Manassas, VA). The PC3 and LNCaP cell lines were maintained in RPMI 1640 supplemented with 10% (v/v) FBS and 100 U/mL of penicillin G and 100 µg/mL of streptomycin sulfate. The cells were maintained as a monolayer in an incubator at 37° C. in a humid atmosphere with 5% CO2.
(§2) PC3 (seeding density of 3,000 cells per well) and LNCaP (seeding density of 6,000 cells per well) were seeded in 96-well plates and allowed to attach for 24 h. […] Cell viability was assessed at 120 h after treatment. The Cell Titer 96® Non-Radioactive Cell Proliferation Assay manufactured by Promega Corporation was employed for this study. Results are presented as percent viability normalized to controls and represent the mean±SD of six replicates per concentration tested. Results were analyzed using One-way Analysis of Variance (ANOVA) and Student's t-test with the aid of SPSS® statistical software. Differences were considered significant at p<0.05.
(§3) The toxicity of the brusatol-loaded nanoparticles in prostate cancer cell lines was evaluated over 120 hours using the Cell Titer 96® Non-Radioactive Cell Proliferation Assay (Promega Corp.). LNCaP cells are androgen receptor dependent while PC-3 cells are androgen independent. […]

[3] = test system: Prostate cancer lines PC3 and LNCaP; test: Preliminary cytotoxicity study of brusatol solution on prostate cancer cell lines (FIG. 1); conditions: brusatol 1 nM to 10,000 nM, read from FIG. 1, read-out: IC50 (kills prostate cancer cells)
Protocol: as §1

PC3 cells = test: Cell Titer 96 Non-Radioactive Cell Proliferation Assay, PC3 cells, 120 h; conditions: PC3, 10-500 nM
Protocol: as §1, §2, §3

**Q.** Brusatol was tested. Which cell cycle effect (LNCaP cells [1]) did it give?
**A.** induces a G1 arrest

**Q.** And the cell cycle effect (LNCaP cells [1]; listed as brusatol solution)?
**A.** G1 arrest

**Q.** What about the “toxicity (in words)” value (LNCaP cells [2]) of the same substance?
**A.** dose-dependent toxicity

**Q.** And the IC50 [3]?
**A.** 0.001 to 0.1 µM

**Q.** What about the “toxicity (in words)” value (PC3 cells) of the same substance?
**A.** dose-dependent toxicity
